Drawing on the CheMixHub ionic liquid set, this text covers viscosity and electrical conductivity for four compounds.

± gives the uncertainty stated by the source.

The nature of the series: xn = mol fraction of the nth substance listed.
Where [1] appears, read: 293.15 K, 100 kPa, x1 = 0.1428, x2 = 0.1428.
[2] abbreviates: 303.15 K, 100 kPa, x1 = 0.1428, x2 = 0.1428.
The mark [3] stands for this setting: 313.15 K, 100 kPa, x1 = 0.1428, x2 = 0.1428.
[4] abbreviates: 323.15 K, 100 kPa, x1 = 0.1428, x2 = 0.1428.
Setting [5] is: 333.15 K, 100 kPa, x1 = 0.1428, x2 = 0.1428.

Regarding `CC[n+]1ccn(C)c1.[Cl-]` + OCCOCCOCCOCCO, the viscosity (as a rule, the resistance of a fluid to flow) (298.15 K, 101.3 kPa, x2 = 0.3333) was 360 ± 93 mPa·s; the viscosity (298.15 K, 101.3 kPa, x2 = 0.5) is 138 ± 18 mPa·s; the viscosity (303.15 K, 101.3 kPa, x2 = 0.3333) stood at 266 ± 58 mPa·s; the viscosity (303.15 K, 101.3 kPa, x2 = 0.5) is recorded as 114 ± 12 mPa·s; the viscosity (313.15 K, 101.3 kPa, x2 = 0.3333) was 168 ± 27 mPa·s; the viscosity (313.15 K, 101.3 kPa, x2 = 0.5) came out at 83.8 ± 5.8 mPa·s. The viscosity is, setting by setting: (323.15 K, 101.3 kPa, x2 = 0.3333) 115 ± 13 mPa·s; (323.15 K, 101.3 kPa, x2 = 0.5) 62.7 ± 2 mPa·s; (333.15 K, 101.3 kPa, x2 = 0.3333) 83 ± 5.6 mPa·s; (333.15 K, 101.3 kPa, x2 = 0.5) 48.7 ± 1.6 mPa·s.
Regarding `CCCC[N+](CCCC)(CCCC)CCCC.[Cl-]` + OC[C@@H](O)[C@@H](O)[C@H](O)[C@@H](O)CO + O, the electrical conductivity reads like this: under setting [1], 0.121 ± 0.012 S/m; under setting [2], 0.189 ± 0.019 S/m; under setting [3], 0.285 ± 0.029 S/m; under setting [4], 0.42 ± 0.042 S/m; under setting [5], 0.605 ± 0.06 S/m. Also, the viscosity came out at 390 ± 110 mPa·s under setting [1]; 201 ± 37 mPa·s under setting [2]; 107 ± 11 mPa·s under setting [3]; 59.8 ± 1.6 mPa·s under setting [4]; 34.5 ± 1.2 mPa·s under setting [5].
`CCCC[N+](CCCC)(CCCC)CCCC.[Cl-]` + Oc1ccccc1 displayed a viscosity (323.15 K, 100 kPa, x1 = 0.167) of 37.2 ± 1.3 mPa·s.
For `CCCC[n+]1ccn(C)c1.[Br-]` + [Cl-].[Li+] + O, the viscosity came out at 2.21 ± 0.12 mPa·s (298.15 K, 100 kPa, x2 = 0, x3 = 0.9487); 2.41 ± 0.13 mPa·s (298.15 K, 100 kPa, x2 = 0.008492, x3 = 0.9402); 2.56 ± 0.13 mPa·s (298.15 K, 100 kPa, x2 = 0.01695, x3 = 0.9318); 2.73 ± 0.14 mPa·s (298.15 K, 100 kPa, x2 = 0.02496, x3 = 0.9237); 2.81 ± 0.15 mPa·s (298.15 K, 100 kPa, x2 = 0.02656, x3 = 0.9221); 3 ± 0.16 mPa·s (298.15 K, 100 kPa, x2 = 0.03322, x3 = 0.9155). Also, the viscosity (298.15 K, 100 kPa, x2 = 0.0408, x3 = 0.9079) worked out at 3.21 ± 0.17 mPa·s.
